Laboratory results reported in patent publication US9707267B2, “Beta-turn peptidomimetic cyclic compounds for treating dry eye” (Mimetogen Pharmaceuticals, Inc., priority 2008, dated 2017).

Key:
[1] = system: cultured rat conjunctival goblet cells; assay: Goblet cell glycoconjugate secretion, ELLA with UEA-1 (Example 2); type: cell-based; settings: 2 hours; for Glycoconjugate Secretion, Mean ± sem: mean of rats; for Glycoconjugate Secretion, Mean ± SD: mean of rats/plates
Description: The culturing of conjunctival goblet cells from explant cultures was as previously described in Shatos, M. et al., “Isolation, Characterization, and Propagation of Rat Conjunctival Goblet Cells In Vitro,” IOVS 42:1455-1464 (2001), the entire content of which is incorporated herein by reference. The tissue was finely minced and individual pieces were anchored onto scored 6-well cultures dishes in 0.5 mL of complete RPMI-1640 (supplemented with 10% FBS, 2 mM glutamine and 100 μg/mL penicillin-streptomycin) and incubated at 37° C. in a humidified 5% CO2-atmosphere. Explant cultures were refed every 2 days. Within a few days, goblet cells migrated from the pieces and began to proliferate. After approximately one week, the tissue plugs were removed and the goblet cells were allowed to grow to confluence. Cells were passaged once by trypsinization of adherent cells with 0.05% trypsin-0.53 mM EDTA (pH 7.4), and plated in 8-well Laboratory Tek chamber slides (histochemistry) or in 96 well (proliferation), 24 well (secretion), or 6 well (western blots) culture plates with complete RPMI-1640 media.
To measure cell secretion, goblet cells were grown to confluence and then serum depleted for 2 hours prior to stimulation. Cells were incubated with compound D3 at 2, 10, and 50 μM, NGF at 0.1, 1 and 10 nM, and PMA at 0.1, 1, and 10 nM in serum-free RPMI for 2 hours. Goblet cell secretion was measured using an enzyme-linked lectin assay (ELLA). Briefly, an aliquot of the cell culture supernatant was transferred to a 96-well polystyrene microtiter plate in triplicate (Corning Life Sciences #2592, Fisher Scientific, Nepean, Ont). A dilution series of bovine submaxillary mucin (BSM) (Sigma, St. Louis, Mo.) was included on each plate as the standard (standard curve data and data showing that detection of BSM is linear between 0.003 and 0.1 μg not shown). The plates were coated by evaporation at 37° C. overnight. After, the plates were washed three times with wash buffer [PBS containing 0.3% BSA, 0.05% Tween-20] then blocked for nonspecific binding with PBS containing 3% BSA and 0.05% Tween-20 at 37° C. for 1 hour. The wells were rinsed three times in wash buffer, and then incubated in 2 μg/mL biotinylated UEA-1 diluted in wash buffer (Vector Labs, Burlingame, Calif.) at 37° C. for 1 hour. The wells were rinsed three times in wash buffer, and then incubated in 1 μg/mL HRP-conjugated neutravidin diluted in wash buffer (Pierce, Rockford, Ill.) at 37° C. for 1 hour. After the wells were rinsed three times in wash buffer, the color development was performed with TMB (Promega, Madison, Wis.) and stopped with 0.5N Sulfuric acid. The absorbance was read at 450 nm on a Benchmark Plus (Biorad). The goblet cells remaining in the culture wells were either scraped in RIPA buffer [1% TritonX-100, 20 mM Tris-HCl pH 7.5, 150 mM NaCl, 1.5 mM MgCl2, 1% Na deoxycholate, 1 mM EGTA, 1 mM EDTA, 0.1% SDS, 10% glycerol, 1 mM Na vanadate, 10 mM Na fluoride, 10 mM Na pyrophosphate, complete mini EDTA-free protease inhibitors (Roche Applied Science, Indianapolis, Ind.)] or 1M Tris-buffer (pH 7.5), collected and sonicated. The amount of protein in the cell homogenate was analyzed using the Bradford protein assay kit using a dilution series of bovine serum albumin (BSA) as the standard (BioRad, Montreal, PQ). Glycoconjugate secretion was normalized to total protein in the homogenate. Data was then expressed as fold increase above basal. […]

[2] = system: rat conjunctival goblet cells; assay: Glycoconjugate secretion from rat conjunctival goblet cells, ELLA (Example 1); type: cell-based; settings: 2 hours, mean±sem
Description: Cells derived from the explants were grown in RPMI 1640 supplemented with 10% fetal bovine serum (FBS) and penicillin (100 U/mL)/streptomycin (100 μg/mL) at 37° C. in a humidified 5% CO2-atmosphere for seventy-two hours. Contaminating nongoblet cells were removed by scraping them from the plate. During this time, goblet cells migrated from the pieces and began to proliferate. After one week, the goblet cells were trypsinized and plated in twenty-four well culture plates with RPMI-1640 media supplemented with 10% FBS.
To measure glycoconjugate secretion, the conjunctival goblet cells were grown to confluence and were serum deprived for two hours before addition of nerve growth factor (NGF), carbachol (Cch), compound D3, compound 3Aa and compound 3Ak for two hours. Compounds D3, 3Aa and 3Ak were administered at concentrations of 30 μm (micromolar), 10 μM, 1 μM and 0.3 μM. The vehicle used to dissolve the compounds, dimethyl sulfoxide (DMSO) was also included. DMSO was used as the basal control for the 30 μM concentration of compound, which was at 0.1% (v/v). The cholinergic agonist carbachol (Cch), added at 100 μM (micromolar), was a positive control for glycoconjugate secretion. The amount of glycoconjugate secreted into the media was measured by enzyme-linked lectin assay (ELLA). The media were collected and analyzed for amount of the lectin-detectable glycoconjugates, including mucins. The amount of secretion was measured by using the lectin UEA-I which is specific for rat conjunctival goblet cell mucins. Biotinylated UEA-I lectin and alkaline phosphatase-labeled streptavidin were used as described in Rios, J. D., et al., “Role of Neurotrophins and Neurotrophin Receptors in Rat Conjunctival Goblet Cell Secretion and Proliferation, Ophthalmology & Visual Science, 48: 1543-1551 (2007), the entire content of which is incorporated herein by reference. The cells were removed and sonicated, and the cell homogenate was analyzed for the total amount of protein by using the Bradford protein assay. […] Glycoconjugate secretion was expressed as the increase (x-fold) over basal.
Data for CGC glycoconjugate secretion and proliferation were expressed as the increase (x-fold) above basal value, which was standardized to 1.0. For example, for the 0.3 μM (micromolar), 1 μM and 10 μM doses, the CGC glycoconjugate secretion and proliferation were expressed as test compound over untreated cells. For the 30 μM dose, the CGC glycoconjugate secretion and proliferation were expressed as test compound over DMSO untreated cells. Results are expressed as the mean±sem.

`NCCCC[C@@H]1NC(=O)[C@H](CCC(=O)O)NC(=O)c2cc([N+](=O)[O-])ccc2OCCC(C(=O)NCC(=O)O)NC1=O` (stereo partly shown) [Compound D3] was tested, and the “Glycoconjugate Secretion” value ([1]; 2 μM, Rat 2) was 1.25 Fold increase above basal, the “Glycoconjugate Secretion” value ([1]; 2 μM, Rat 2 Plate 1) was 2.5 μg glycoconjugate/mg total protein and the “Glycoconjugate Secretion” value ([1]; 2 μM, Rat 3) was 2.14 Fold increase above basal. For the same compound, the “Glycoconjugate Secretion” value ([1]; 2 μM, Rat 3 Plate 1) was 10.5 μg glycoconjugate/mg total protein, the “Glycoconjugate Secretion” value ([1]; 2 μM, Rat 4) was 1.09 Fold increase above basal and the “Glycoconjugate Secretion” value ([1]; 2 μM, Rat 4 Plate 1) was 9.3 μg glycoconjugate/mg total protein. The “Glycoconjugate Secretion, Mean ± sem” value ([1]; 2 μM) was 1.49±0.33 Fold increase above basal, the “Glycoconjugate Secretion, Mean ± SD” value ([1]; 2 μM) was 7.4 ± 4.3 μg glycoconjugate/mg total protein and the “Glycoconjugate Secretion, Mean ± sem” value ([1]; 2 μM, listed as MIM-D3) was 1.49 ± 0.33 Fold increase above basal. For the same compound, the “Glycoconjugate Secretion” value ([1]; 10 μM, Rat 2) was 1.25 Fold increase above basal, the “Glycoconjugate Secretion” value ([1]; 10 μM, Rat 2 Plate 1) was 2.5 μg glycoconjugate/mg total protein and the “Glycoconjugate Secretion” value ([1]; 10 μM, Rat 3) was 1.04 Fold increase above basal. For the same compound, the “Glycoconjugate Secretion” value ([1]; 10 μM, Rat 3 Plate 1) was 5.1 μg glycoconjugate/mg total protein, the “Glycoconjugate Secretion” value ([1]; 10 μM, Rat 4) was 1.35 Fold increase above basal and the “Glycoconjugate Secretion” value ([1]; 10 μM, Rat 4 Plate 1) was 11.6 μg glycoconjugate/mg total protein. For the same compound, the “Glycoconjugate Secretion, Mean ± sem” value ([1]; 10 μM) was 1.21 ± 0.09 Fold increase above basal, the “Glycoconjugate Secretion, Mean ± SD” value ([1]; 10 μM) was 6.4 ± 4.7 μg glycoconjugate/mg total protein and the “Glycoconjugate Secretion” value ([1]; 50 μM, Rat 1) was 1.38 Fold increase above basal. The “Glycoconjugate Secretion” value ([1]; 50 μM, Rat 1 Plate 2) was 5.4 μg glycoconjugate/mg total protein, the “Glycoconjugate Secretion” value ([1]; 50 μM, Rat 2) was 1.65 Fold increase above basal and the “Glycoconjugate Secretion” value ([1]; 50 μM, Rat 2 Plate 1) was 3.3 μg glycoconjugate/mg total protein. For the same compound, the “Glycoconjugate Secretion” value ([1]; 50 μM, Rat 3) was 1.16 Fold increase above basal, the “Glycoconjugate Secretion” value ([1]; 50 μM, Rat 3 Plate 1) was 5.7 μg glycoconjugate/mg total protein and the “Glycoconjugate Secretion” value ([1]; 50 μM, Rat 4) was 1.11 Fold increase above basal. For the same compound, the “Glycoconjugate Secretion” value ([1]; 50 μM, Rat 4 Plate 1) was 9.5 μg glycoconjugate/mg total protein, the “Glycoconjugate Secretion, Mean ± sem” value ([1]; 50 μM) was 1.33 ± 0.12 Fold increase above basal and the “Glycoconjugate Secretion, Mean ± SD” value ([1]; 50 μM) was 6.0 ± 2.6 μg glycoconjugate/mg total protein. For the same compound, the CGC glycoconjugate secretion ([2]; 0.3 μM) was 1.3±0.2 fold above basal, the CGC glycoconjugate secretion ([2]; 1 μM) was 1.6±0.2 fold above basal and the CGC glycoconjugate secretion ([2]; 10 μM) was 1.6±0.3 fold above basal. It also gave a CGC glycoconjugate secretion ([2]; 30 μM, over DMSO basal) of 1.7±0.7 fold above basal.
